For 33 compounds, IC50, inhibition and Activity results are on record in ChEMBL document CHEMBL6182937, “Design, Synthesis, and Anti-ischemic Stroke Activity Evaluation of Novel GSNOR Inhibitors” (J Med Chem, 2025).

Molecules are shown by their SMILES. pIC50: −log10 of the molar value. The source made the active and inactive calls. The rule behind the calls is not given here.

A short description of assay [1]: Inhibition of GSNOR (unknown origin) in presence of NADH incubated for 10 mins by microplate reader analysis. On the set-up: species or system Homo sapiens.
Assay [2] is filed under the species Homo sapiens. Put plainly: Inhibition of GSNOR (unknown origin) at 1 uM in presence of NADH incubated for 10 mins by microplate reader analysis relative to control.
The test system of the next assay is SH-SY5Y. Put plainly: Neuroprotective activity against OGD/R-induced human […] cell injury model assessed as increase in cell viability at 10 uM measured for 24 hrs by CCK-8 assay. The assay is classed as functional, cell-based.
In assay [3] the test system is Rattus norvegicus. Nature of the assay: Neuroprotective activity against tMCAO- induced brain injury in Sprague-Dawley rat model assessed as reduction in infarct volume at 5 mg/kg, iv measured up to 24 hrs by TTC staining based analysis (reference value: 36.35 +/- 4.05%). The assay is classed as functional. On the set-up: scale not given: the % may be the effect or the level left.

Assay [4] relates to Rattus norvegicus. Nature of the assay: Neuroprotective activity against tMCAO- induced brain injury in Sprague-Dawley rat model assessed as reduction in infarct volume at 10 mg/kg, iv measured up to 24 hrs by TTC staining based analysis (reference value: 36.35 +/- 4.05%). In kind it is functional. On the set-up: scale not given: the % may be the effect or the level left.
The species named for assay [5] is Homo sapiens. Nature of the assay: Inhibition of GSNOR (unknown origin) at 10 uM relative to control.
The nature of assay [6]: Inhibition of GSNOR (unknown origin). Further details: species or system Homo sapiens.

What is called pIC50 is the IC50 on a negative log10 scale, so that one unit is a factor of ten. For orientation: inhibition means the change of the read-out against control, counted positive when it falls.

For the compound `Cc1cc(C(N)=O)ccc1-n1c(CCC(=O)O)ccc1-c1ccc(-n2ccnc2)cc1` [N6022], the pIC50 in assay [1] was 7.07. In the assay listed under Homo sapiens [2], the inhibition is 90.3%. In addition, the outcome in the assay on SH-SY5Y was Active. Moreover, the Activity in the assay with Rattus norvegicus [3] and in the assay with Rattus norvegicus [4] was 25.26% throughout.

For `NC(=O)c1ccc(-n2c(-c3ccc(-n4ccnc4)cc3)cc3ccc(C(=O)O)cc32)cc1Cl`, in assay [1], the pIC50 was 7.29. In the assay listed under Homo sapiens [2], the inhibition was 93.3%.

Turning to `Cc1cc(C(N)=O)ccc1-n1c(-c2ccc(N3CCOCC3)cc2)cc2ccc(C(=O)O)cc21`, in the assay filed under Homo sapiens [2], the inhibition was -0.76%.

As for `Cc1cc(C(N)=O)ccc1-n1c(-c2ccc(-c3cn(C)nc3C(F)(F)F)cc2)cc2ccc(C(=O)O)cc21`, the inhibition in the assay filed under Homo sapiens [2] came to 0.93%.

`O=C(O)c1ccc2cc(-c3ccc(-n4ccnc4)cc3)n(Cc3ccc(Br)cc3)c2c1`: the pIC50 in assay [1] was 7.07. Further, the inhibition in the assay filed under Homo sapiens [2] turned out to be 81.6%.

Consider `N#Cc1ccc(Cn2c(-c3ccc(-n4ccnc4)cc3)cc3ccc(C(=O)O)cc32)cc1`, for which the pIC50 in assay [1] is 7.26. For the same compound, the inhibition in the assay filed under Homo sapiens [2] was determined as 35.1%.

For `NC(=O)c1ccc(-n2c(-c3ccc(-n4ccnc4)cc3)cc3ccc(C(=O)O)cc32)cc1Br`, the inhibition in the assay filed under Homo sapiens [2] amounted to 76.6%.

As to `NC(=O)c1ccc(-n2c(-c3ccc(-n4ccnc4)cc3)cc3ccc(C(=O)O)cc32)cc1`, the pIC50 in assay [1] is 6.51. Further, the inhibition in the assay listed under Homo sapiens [2] turned out to be 81.7%.

Regarding `O=C(O)c1ccc2cc(-c3ccc(-n4ccnc4)cc3)n(Cc3ccc(Cl)cc3)c2c1`, the pIC50 in assay [1] was 6.77. In addition, in the assay filed under Homo sapiens [2], the inhibition is 28.1%.

Take `Cc1cc(C(N)=O)ccc1-n1c(-c2ccc(-c3ccncc3)cc2)cc2ccc(C(=O)O)cc21`: the inhibition in the assay filed under Homo sapiens [2] is 12.5%.

Turning to `Cc1cc(C(N)=O)ccc1-n1c(-c2ccc(-n3ccnc3)cc2)cc2ccc(C(=O)O)cc21`, the pIC50 in assay [1] was 6.72. Moreover, the inhibition in the assay filed under Homo sapiens [2] was determined as 81.2%.

For the compound `Cc1cc(C(N)=O)ccc1-n1c(-c2ccc(O)cc2)cc2ccc(C(=O)O)cc21`, the inhibition in the assay listed under Homo sapiens [2] was found to be 33.7%.

Regarding `Cc1cc(C(N)=O)ccc1-n1c(-c2ccc(-c3cccnc3)cc2)cc2ccc(C(=O)O)cc21`, in the assay filed under Homo sapiens [2], the inhibition was determined as 22.2%.

For the compound `Cc1cc(C(N)=O)ccc1-n1c(-c2ccc(NS(N)(=O)=O)cc2)cc2ccc(C(=O)O)cc21`, the inhibition in the assay listed under Homo sapiens [2] was determined as 14.8%.

With `NC(=O)c1ccc(-n2c(-c3ccc(-n4ccnc4)cc3)cc3ccc(C(=O)O)cc32)cc1C(F)(F)F`, the inhibition in the assay listed under Homo sapiens [2] was found to be 50.9%.

With `NC(=O)c1ccc(Cn2c(-c3ccc(-n4ccnc4)cc3)cc3ccc(C(=O)O)cc32)cc1`, the pIC50 in assay [1] is 7.37. Also, in the assay filed under Homo sapiens [2], the inhibition was found to be 22.4%.

As for `O=C(O)c1ccc2cc(-c3ccccc3)n(Cc3ccc(F)cc3)c2c1`, in the assay listed under Homo sapiens [5], the inhibition came out at 32.4%.

Consider `N#Cc1ccc(Cn2c(-c3ccc(-n4ccnc4)cc3)cc3ccc(C(=O)O)cc32)cc1F`, for which, in the assay filed under Homo sapiens [2], the inhibition worked out at 88.9%.

Turning to `O=C(O)c1ccc2cc(-c3ccc(-n4ccnc4)cc3)n(Cc3ccc(N4CCCC4=O)cc3)c2c1`, the inhibition in the assay listed under Homo sapiens [2] is 85.5%.

Turning to `CN(C)S(=O)(=O)c1ccc(Cn2c(-c3ccc(-n4ccnc4)cc3)cc3ccc(C(=O)O)cc32)cc1`, the inhibition in the assay listed under Homo sapiens [2] amounted to 94.3%.

Regarding `Cc1cc(C(N)=O)ccc1-n1c(-c2ccc(-c3ccc(=O)[nH]c3)cc2)cc2ccc(C(=O)O)cc21`, the inhibition in the assay filed under Homo sapiens [2] is 5.7%.

With `Cc1cc(-n2c(-c3ccc(-n4ccnc4)cc3)cc3ccc(C(=O)O)cc32)ccc1C(N)=O`, the inhibition in the assay listed under Homo sapiens [2] was 72.2%.

Consider `NC(=O)c1ccc(-n2c(-c3ccc(-n4ccnc4)cc3)cc3ccc(C(=O)O)cc32)cc1O`, for which, in assay [1], the pIC50 was 7.22. Also, the inhibition in the assay listed under Homo sapiens [2] stood at 97%.

Consider `N#Cc1cccc(Cn2c(-c3ccc(-n4ccnc4)cc3)cc3ccc(C(=O)O)cc32)c1`, for which, in assay [1], the negative-log IC50 (pIC50) was 6.99. Further, the inhibition in the assay listed under Homo sapiens [2] is 84.4%.

For the compound `Cc1cc(C(N)=O)ccc1-n1c(-c2ccc(-c3cn(C)nc3C)cc2)cc2ccc(C(=O)O)cc21`, the inhibition in the assay listed under Homo sapiens [2] was determined as 2.44%.

With `N[C@@H](CCC(=O)N[C@@H](CSN=O)C(=O)NCC(=O)O)C(=O)O` [S-NITROSOGLUTATHIONE], the outcome in the assay with SH-SY5Y was Active. The Activity with Rattus norvegicus [3] turned out to be 25.26%.

As to `O=C(O)c1ccc2cc(-c3ccc(-n4ccnc4)cc3)n(Cc3ccc(SC(F)(F)F)cc3)c2c1`, the pIC50 in assay [1] is 7.15. In addition, the inhibition in the assay filed under Homo sapiens [2] turned out to be 89.7%.

Take `NC(=O)c1cccc(Cn2c(-c3ccc(-n4ccnc4)cc3)cc3ccc(C(=O)O)cc32)c1`: the inhibition in the assay filed under Homo sapiens [2] came out at 3.84%.

Take `Cc1cc(C(N)=O)ccc1-n1c(-c2ccc(N3CCN(C)CC3)cc2)cc2ccc(C(=O)O)cc21`: the inhibition in the assay filed under Homo sapiens [2] was -0.36%.

In the case of `N#Cc1ccc(-n2c(-c3ccc(-n4ccnc4)cc3)cc3ccc(C(=O)O)cc32)cc1`, the inhibition in the assay filed under Homo sapiens [2] was determined as 22.4%.

For `CC(C)Oc1cc(-n2c(-c3ccc(-n4ccnc4)cc3)cc3ccc(C(=O)O)cc32)ccc1C(N)=O`, in assay [1], the pIC50 is 7.23. Also, the inhibition in the assay filed under Homo sapiens [2] amounted to 92.3%.

In assay [6], `O=C(O)c1ccc2cc(-c3ccc(-n4ccnc4)cc3)n(Cc3ccc(F)cc3)c2c1` had a pIC50 of 6.19.

`NC(=O)c1ccc(-n2c(-c3ccc(-n4ccnc4)cc3)cc3ccc(C(=O)O)cc32)cn1`: the inhibition in the assay filed under Homo sapiens [2] is 60.7%.
